# Assay results as given in article PMC9697947 (Viruses, 2022).
# How the values were obtained:
# eHEV-nanoKAZ [1] = test: Time-of-addition: viral attachment assay (intracellular luciferase activity); type: cell-based, Hepatitis E virus; conditions: PLC/PRF/5 cells
# eHEV-nanoKAZ [2] = test: Time-of-addition: viral internalization assay; type: cell-based, Hepatitis E virus; conditions: PLC/PRF/5 cells
# eHEV-3 (JE03-1760F) [3] = test: Immunofluorescence assay of HEV ORF2 protein expression in PLC/PRF/5 cells; type: cell-based, Hepatitis E virus genotype 3; conditions: day 4 post-inoculation
# [4] = parameters: method as in ref 47 = [47]; conditions: Antiretroviral Pregnancy Registry (APR); cited from earlier work
# HEV [5] = tested on: HEV; parameters: method as in ref 31 = [31]; conditions: cited from earlier work
# eHEV-nanoKAZ [6] = test: microbe, parasite or virus in culture; conditions: Hepatitis E virus, PLC-PRF-5, read-out: Inhibition (%) of intracellular luciferase activity
# eHEV-nanoKAZ [7] = test: Time-of-addition: viral inactivation assay (intracellular luciferase activity); conditions: PLC/PRF/5 cells, 4 days post-inoculation
# eHEV-3 (JE03-1760F) [8] = test: HEV growth in PLC/PRF/5 cells inoculated with eHEV-3; type: cell-based, Hepatitis E virus genotype 3; conditions: 48 dpi
# eHEV-4 (HE-JF5/15F) [9] = test: HEV growth in PLC/PRF/5 cells inoculated with eHEV-4; type: cell-based, Hepatitis E virus genotype 4; conditions: 48 dpi
# eHEV-3 (JE03-1760F) [10] = test: HEV growth in PLC/PRF/5 cells robustly producing eHEV-3; type: cell-based, Hepatitis E virus genotype 3
# eHEV-4 (HE-JF5/15F) [11] = test: HEV growth in PLC/PRF/5 cells robustly producing eHEV-4; type: cell-based, Hepatitis E virus genotype 4
# HEV [12] = conditions: ribavirin monotherapy; undetectable serum HEV RNA at least six months after cessation; cited from earlier work
# [13] = ribavirin 40 μM, mean of triplicate wells
# [14] = ribavirin 40 μM, 60 days after the start of drug treatment, mean of triplicate wells
# [15] = ribavirin alone 40 µM, day 60 after the start of drug treatment
smiles,measurement,setting,value
"CC(C)c1nc(CN(C)C(=O)N[C@H](C(=O)N[C@@H](Cc2ccccc2)C[C@H](O)[C@H](Cc2ccccc2)NC(=O)OCc2cncs2)C(C)C)cs1 [Ritonavir, ritonavir]",intracellular luciferase activity,"eHEV-nanoKAZ [1]; ritonavir 20 µM during attachment (4 °C 1 h, 37 °C 1 h), compared to untreated control",100.4%
same,intracellular luciferase activity,"eHEV-nanoKAZ [2]; ritonavir 20 µM added after attachment, 37 °C 2 h, compared to untreated control, p = 0.0036",9.6%
same,expression of ORF2 protein,eHEV-3 (JE03-1760F) [3]; ritonavir 20 µM during 4 h inoculation,undetectable
same,risk of human teratogenicity,[4],no evidence of an increased risk of human teratogenicity
same,inhibition of HEV growth in cultured cells,HEV [5],potent inhibition of HEV growth in cultured cells
same,inhibition at 0.05 µM,eHEV-nanoKAZ [6],18.1%
same,inhibition at 0.1 µM,eHEV-nanoKAZ [6],29.1%
same,inhibition at 0.5 µM,eHEV-nanoKAZ [6],59.6%
same,inhibition at 1 µM,eHEV-nanoKAZ [6],71.6%
same,inhibition at 5 µM,eHEV-nanoKAZ [6],89.7%
same,inhibition at 35 µM,eHEV-nanoKAZ [6],95.9%
same,intracellular luciferase activity,"eHEV-nanoKAZ [7]; ritonavir 20 µM pre-incubated with eHEV-nanoKAZ 1 h 37 °C, compared to untreated control",94.3%
"NC(=O)c1ncn([C@@H]2O[C@H](CO)[C@@H](O)[C@H]2O)n1 [Ribavirin, ribavirin]",intracellular luciferase activity,eHEV-nanoKAZ [1]; ribavirin 40 µM during attachment,did not decrease intracellular luciferase activity
same,intracellular luciferase activity,eHEV-nanoKAZ [2]; ribavirin 40 µM added after attachment,did not decrease intracellular luciferase activity
same,expression of ORF2 protein,eHEV-3 (JE03-1760F) [3]; ribavirin 40 µM during 4 h inoculation,detectable
same,Intracellular HEV RNA,eHEV-3 (JE03-1760F) [8]; [13],1.2 × 10^8 copies/well (mean)
same,HEV RNA titer in culture supernatants,eHEV-3 (JE03-1760F) [8]; ribavirin monotherapy 40 µM,2.0 × 10^7 copies/mL
same,Intracellular HEV RNA,eHEV-4 (HE-JF5/15F) [9]; [13],4.4 × 10^7 copies/well (mean)
same,HEV RNA titer in culture supernatants,eHEV-4 (HE-JF5/15F) [9]; ribavirin monotherapy 40 µM,4.3 × 10^7 copies/mL
same,Intracellular HEV RNA,eHEV-3 (JE03-1760F) [10]; [14],1.6 × 10^7 copies/well (mean)
same,HEV RNA titer in culture supernatants,eHEV-3 (JE03-1760F) [10]; [15],2.7 × 10^6 copies/mL
same,Intracellular HEV RNA,eHEV-4 (HE-JF5/15F) [11]; [14],2.3 × 10^7 copies/well (mean)
same,HEV RNA titer in culture supernatants,eHEV-4 (HE-JF5/15F) [11]; [15],2.9 × 10^7 copies/mL
same,"sustained virological response (SVR), patients achieving",HEV [12],approximately 80%
same,inhibition at 1 µM,eHEV-nanoKAZ [6],20.4%
same,inhibition at 5 µM,eHEV-nanoKAZ [6],24.2%
same,inhibition at 10 µM,eHEV-nanoKAZ [6],33.3%
same,inhibition at 20 µM,eHEV-nanoKAZ [6],58%
same,inhibition at 40 µM,eHEV-nanoKAZ [6],79.6%
same,inhibition at 80 µM,eHEV-nanoKAZ [6],91%
same,intracellular luciferase activity,eHEV-nanoKAZ [7]; ribavirin 40 µM pre-incubated with eHEV-nanoKAZ,did not decrease intracellular luciferase activity
OC[C@H]1O[C@@](CO)(O[C@H]2O[C@H](CO)[C@@H](O)[C@H](O)[C@H]2O)[C@@H](O)[C@@H]1O [Sucrose],intracellular luciferase activity,"eHEV-nanoKAZ [2]; sucrose 250 mM added after attachment, 37 °C 2 h, compared to untreated control, p = 0.0033",14.9%
same,expression of ORF2 protein,eHEV-3 (JE03-1760F) [3]; sucrose 250 mM during 4 h inoculation,undetectable
